# In BindingDB's records for doi:10.3109/14756366.2013.765415 (Universidad de la República, 2014):
# What was measured:
# [1] = biological target: Triosephosphate isomerase (Homo sapiens, UniProt P60174); assay: Inhibition Assay; settings: pH 7.4; 37 °C
# Description: (§1) The reaction mixture (1 mL, pH 7.4) contained 100mM triethanolamine, 10mM EDTA, 0.2mM NADH, 1mM glyceraldehyde 3-phosphate (GAP) and 0.9 units of α-glycerol phosphate dehydrogenase (α-GPDH). The reaction was initiated by addition of 5 ng/mL of the corresponding TIM or the corresponding TIM pre-incubated with the studied compounds. In these cases, inhibition assays, the enzymes were pre-incubated for 2 h at 37 °C with the studied compounds.
# [2] = biological target: Triosephosphate isomerase, glycosomal (Trypanosoma brucei brucei, UniProt P04789); assay: Inhibition Assay; settings: pH 7.4; 37 °C
# Triosephosphate isomerase, glycosomal, sequence (P04789 whole entry): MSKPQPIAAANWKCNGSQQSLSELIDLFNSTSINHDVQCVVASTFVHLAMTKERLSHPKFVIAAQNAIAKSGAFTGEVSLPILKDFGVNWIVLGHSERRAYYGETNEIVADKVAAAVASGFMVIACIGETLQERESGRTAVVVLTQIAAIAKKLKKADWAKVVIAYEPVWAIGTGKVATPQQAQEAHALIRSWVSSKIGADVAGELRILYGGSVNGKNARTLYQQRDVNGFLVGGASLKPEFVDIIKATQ
# Description: as §1
IC50 [1] [µM],IC50 [2] [µM],Compound
100,–,"Cc1ccc(-c2nsc(=O)[nH]2)cc1 [TIM inhibitor, 1]"
> 100,34,"O=C1C(=Cc2ccc([N+](=O)[O-])o2)C(=O)N(Cc2ccccc2)SN1Cc1ccccc1 [TIM inhibitor, 3]"
> 100,–,"Oc1ccc2nc3cc(Cl)c(Cl)cc3nc2c1 [TIM inhibitor, 2]"
